These results are taken from patent US5118675A, “Quinoxaline phosphono-amino acids” (American Home Products Corporation, priority 1991, dated 1992).

Test [1] has as its target NMDA receptor. The test can be described thus: Displacement of tritiated CPP ([3H] CPP binding) in rat frontal cortex homogenates. Here is the method: CPP binding at 10 μM concentrations. The IC50 calculated for these compounds is as follows: […]
The test system of test [2] is NMDA-lethality. The test can be described thus: NMDA-lethality model in mice (antagonism of NMDA in vivo, survival). Also noted: species or system mouse (male Swiss-albino, CD-1 strain). The conditions noted are these: Mus musculus, ip, 0.5 h; test compound i.p. 30 min before NMDA 195 mg/kg i.p.; 30 min observation. The method, then:
Male Swiss-albino mice (CD-1 strain, Charles River) 18-22 grams in weight, after 18 hours of food deprivation, were habituated to an observation chamber for 30 minutes. The mice were pretreated with the representative test compound followed thirty minutes later with NMDA, 195 mg/kg, i.p., which is a dose normally causing 90% mortality resulting from motor seizures including uncontrollable hind leg scratching or limbs and/or torso muscle jerking with loss of righting reflex followed by death within the 30 minute observation period after NMDA administration. From the latter, the ED50 for survival is determined.

By IC50 is commonly meant the concentration needed to halve the response being measured. Read a low IC50 as higher potency. As usually defined, the ED50 is the dose at which the effect has come halfway, by size or by number of responders. Higher therefore signals a need for a large dose.

`NC(Cc1nc2ccccc2nc1CP(=O)(O)O)C(=O)O` (racemic) [Example 1, α-Amino-3-(phosphonomethyl)-2-quinoxalinepropanoic Acid]: the concentration for half-maximal inhibition (IC50) in test [1] stood at 110 nM. Besides, the 50% effective dose (ED50) in test [2] amounted to 3.72 mg/kg.

For `NC(Cc1nc2ccccc2nc1CP(=O)(O)O)C(=O)O` (single isomer, unassigned) [Laevoisomer of Example 3, (-)-α-amino-3-(phosphonomethyl)-2-quinoxalinepropanoic acid], the IC50 in test [1] came to 29 nM. Further, in test [2], the 50% effect level (ED50) was put at a dose of 1.52 mg/kg.

In the case of `Cc1cc2nc(CC(N)C(=O)O)c(CP(=O)(O)O)nc2cc1C` (stereo not drawn) [Example 4, α-Amino-6,7-dimethyl-3-(phosphonomethyl)-2-quinoxalinepropanoic Acid], the IC50 in test [1] worked out at 22 nM.

The molecule `NC(Cc1nc2cc3ccccc3cc2nc1CP(=O)(O)O)C(=O)O` (stereo not drawn) [Example 5, α-Amino-3-(phosphonomethyl)-2-benzo[g]quinoxalinepropanoic Acid] yielded a 50% inhibitory concentration (IC50) in test [1] of 6 nM. The molecule also showed a 50% effective dose (ED50) in test [2] of 5.3 mg/kg.

Molecule `NC(Cc1nc2cc(Cl)c(Cl)cc2nc1CP(=O)(O)O)C(=O)O` (stereo not drawn) [Example 7, α-Amino-6,7-dichloro-3-(phosphonomethyl)-2-quinoxalinepropanoic Acid] showed an IC50 in test [1] of 4 nM. The same molecule yielded a 50% effective dose (ED50) in test [2] of 1.58 mg/kg.

In test [1], `NC(Cc1nc2cc(Cl)ccc2nc1CP(=O)(O)O)C(=O)O` (stereo not drawn) [Example 8, α-Amino-7-chloro-3-(phosphonomethyl)-2-quinoxalinepropanoic Acid] gave a half-maximal inhibitory concentration (IC50) of 24 nM. In test [2], this molecule gave a 50% effective dose (ED50) of 1.13 mg/kg.

For `NC(Cc1nc2cc(F)c(F)cc2nc1CP(=O)(O)O)C(=O)O` (stereo not drawn) [Example 10, α-Amino-6,7-difluoro-3-(phosphonomethyl)-2-quinoxalinepropanoic Acid], the half-maximal inhibitory concentration (IC50) in test [1] worked out at 166 nM.

Take `COc1cc2nc(CC(N)C(=O)O)c(CP(=O)(O)O)nc2cc1OC` (stereo not drawn) [Example 11, α-Amino-6,7-dimethoxy-3-(phosphonomethyl)-2-quinoxalinepropanoic Acid]: the IC50 in test [1] amounted to 832 nM.

On to `N[C@@H](CCC(=O)O)C(=O)O` [L-glutamic acid, reference compound], for which the IC50 in test [1] was 64 nM.

“D(-)-2-amino-5-phosphono-heptanoic acid [D(-)-2-amino-5-phosphonoheptanoic acid, reference compound]”: the IC50 in test [1] was 639 nM.
